# In paper PMC10584170, “Machine learning-based phenotypic imaging to characterise the targetable biology of Plasmodium falciparum male gametocytes for the development of transmission-blocking antimalarials” (PLOS Pathogens, 2023):
# Read-outs that look alike come from different tables or passages of the source.
# Key:
# [1] = test system: P. falciparum male gametocytes; assay: P. falciparum Dual Gamete Formation Assay (PfDGFA), male readout (exflagellation); type: cell-based, Plasmodium falciparum NF54; conditions: for Selectivity Ratio M: HepG2 Tox50 versus male IC50
# Method in brief: (§1)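 NF54 mature gametocytes (d14), cpd 24 h 37°C hypoxic gas; trigger: xanthurenic acid ookinete medium + Cy3 anti-Pfs25, 4°C 4 min → 28°C 4 min. Male: exflagellation centres, brightfield x6. Female: Pfs25+ gametes, fluorescence, +24 h 28°C dark.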
# [2] = test system: P. falciparum female gametocytes; assay: P. falciparum Dual Gamete Formation Assay (PfDGFA), female readout (Pfs25-positive female gametes); type: cell-based, Plasmodium falciparum NF54; conditions: for Selectivity ratio F: HepG2 Tox50 versus female IC50
# Method in brief: as §1
# [3] = test system: HepG2 cells; assay: HepG2 cytotoxicity counter-screen; conditions: for Mean TOX: mean of the HepG2 TOX50 values; for DGFA Tox50 HepG2: HepG2 value reported with the DGFA screen; for Tox50: cytotoxic activity against HepG2 cells
# [4] = this study, read-out: Pf DGFA IC50 MALE
# [5] = this study, read-out: Pf DGFA IC50 FEM
# [6] = 2µM, 24h preincubation with gametocytes, average of replicates
# [7] = 2µM, 24h preincubation with gametocytes, replicate R1
# [8] = 2µM, 24h preincubation with gametocytes, replicate R3
# [9] = 2µM, 24h preincubation with gametocytes, replicate R4
# [10] = Plasmodium falciparum, 2µM, 24h preincubation with gametocytes, average of replicates, read-out: Average inhibition male (%)
# [11] = Plasmodium falciparum, 2µM, 24h preincubation with gametocytes, replicate R1, read-out: % inhibition male (individual replicates) R1
# [12] = Plasmodium falciparum, 2µM, 24h preincubation with gametocytes, replicate R2, read-out: % inhibition male (individual replicates) R2
# [13] = Plasmodium falciparum, 2µM, 24h preincubation with gametocytes, replicate R3, read-out: % inhibition male (individual replicates) R3
# [14] = Plasmodium falciparum, 2µM, 24h preincubation with gametocytes, replicate R4, read-out: % inhibition male (individual replicates) R4
# [15] = Plasmodium falciparum, PfDGFA, 24 h incubation with gametocytes before induction, exflagellation readout, read-out: Male IC50
# [16] = Plasmodium falciparum, 2µM, 24h preincubation with gametocytes, average of replicates, read-out: Average inhibition female (%)
# [17] = Plasmodium falciparum, 2µM, 24h preincubation with gametocytes, replicate R1, read-out: % inhibition female (individual replicates) R1
# [18] = Plasmodium falciparum, 2µM, 24h preincubation with gametocytes, replicate R2, read-out: % inhibition female (individual replicates) R2
# [19] = Plasmodium falciparum, 2µM, 24h preincubation with gametocytes, replicate R3, read-out: % inhibition female (individual replicates) R3
# [20] = Plasmodium falciparum, 2µM, 24h preincubation with gametocytes, replicate R4, read-out: % inhibition female (individual replicates) R4
# [21] = Plasmodium falciparum, PfDGFA, 24 h incubation with gametocytes before induction, female gamete readout, read-out: Female IC50
SMILES,Cytotox ratio Pf Male [1],"IC50 [1, 4] [µM]",Cytotox ratio Pf Female [2],"IC50 [2, 5] [µM]",Mean TOX [3] [µM],other results
N=C(N)NCCN(Cc1ccccc1)c1ccc(Cl)cc1 [TC09],72.7,0.67,7.5,6.5,48.68,
O=C(NC1CCN(Cc2ccccc2)CC1)c1cc(C(=O)NC2CCN(Cc3ccccc3)CC2)cc(C(=O)NC2CCN(Cc3ccccc3)CC2)c1 [TC20],13.0,7.71,10.0,,100.00,DGFA Tox50 HepG2 [3]: 100 µM
CC(C)S(=O)(=O)N1CCN(Cc2ccc3c(c2)nc(NC(=O)c2ccsc2)n3C[C@H](O)c2ccccc2)CC1 [TC25],20.7,0.41,0.848,,8.48,
Oc1cccc(CNCCCN(Cc2ccccc2)c2ccccc2)c1 [TC30],13.1,1.06,1.8,7.74,13.84,
Fc1ccc2[nH]c(-c3ccc(-c4ccc(CNCCN5CCNCC5)cc4)cc3)nc2c1.O=C(O)C(F)(F)F [TC31],12.1,2.39,2.9,,28.84,
COc1cc2c(cc1S(=O)(=O)c1ccc(COc3ccc(C(F)(F)F)cc3)cc1)CNCC2.Cl [TC36],12.0,1.38,1.7,,16.60,
O=C(c1ccc(-c2cnc3[nH]cc(-c4ccc(C(=O)N5CCOCC5)cc4)c3c2)cc1)N1CCOCC1 [TC43],65.9,0.44,2.9,,28.99,
CN1CCC(NCc2ccc(-c3cnc(NCc4ccccc4)nc3)cc2)CC1.O=C(O)C(F)(F)F [TC47],11.6,0.96,1.7,6.57,11.10,
Cc1cccc(Nc2nc(NCCCCN)nc3cc[nH]c(=O)c23)c1.O=C(O)C(F)(F)F [TC51],75.4,0.38,2.9,,28.66,
CCCCNS(=O)(=O)c1ccc(NC(=O)c2cc([N+](=O)[O-])ccc2Cl)cc1 [TC52],270.3,0.37,13.2,7.56,100.00,DGFA Tox50 HepG2 [3]: 100 µM
Cc1ccc(C)c(S(=O)(=O)NCC2CCN(Cc3ccc(O)cc3)CC2)c1.O=C(O)C(F)(F)F [TC53],54.7,1.49,8.2,,81.55,
CN1CCN(c2ccc(Nc3c4ccccc4nc4ccccc34)cc2)CC1 [TC57],45.2,0.59,3.0,8.84,26.65,
CCn1c(-c2nonc2N)nc2c(-c3ccccc3)ncc(OCCCNCCCN3CCOCC3)c21.O=C(O)C(F)(F)F [TC62],11.8,1.37,2.5,6.49,16.12,
COCCn1c(Sc2ncnc3sccc23)nc2ccccc21 [TC65],81.3,1.23,94.3,1.06,100.00,DGFA Tox50 HepG2 [3]: 100 µM
CS(=O)(=O)Cc1ccc(Nc2ncc(Cl)c(Nc3cccnc3C(N)=O)n2)cc1.Cl [TC68],16.0,6.25,10.0,,100.00,DGFA Tox50 HepG2 [3]: 100 µM
Cl.O=C1Nc2ccc3ncccc3c2/C1=C/Nc1ccc(N2CCN(CCO)CC2)cc1 [TC71],225.8,0.15,3.4,,33.87,
CN(C)c1ccnc2ccc(NC(=O)Nc3ccnc4ccccc34)cc12 [TC74],13.3,1.7,3.8,5.92,22.68,
CC(CO)(CO)NCc1cc2c3ccccc3c(CNC(C)(CO)CO)cc2c2ccccc12.CS(=O)(=O)O [TC76],15.0,0.87,2.7,4.79,13.04,
CNC(=S)NN=C(C)c1ccccn1 [TCMDC-123475],,,,,,"Average inhibition male (%) [1, 6]: 95.4%; % inhibition male (individual replicates) R1 [1, 7]: 96.5%; % inhibition male (individual replicates) R3 [1, 8]: 96.2%; % inhibition male (individual replicates) R4 [1, 9]: 91.6%; Selectivity Ratio M [1]: 0.29; IC50 ([1]; PfDGFA, 24 h incubation with gametocytes before induction, exflagellation readout, read-out: Male IC50): 0.45 µM; Average inhibition female (%) [2, 6]: 52.8%; % inhibition female (individual replicates) R1 [2, 7]: 38.7%; % inhibition female (individual replicates) R3 [2, 8]: 43.6%; % inhibition female (individual replicates) R4 [2, 9]: 50.7%; Selectivity ratio F [2]: 0.49; IC50 ([2]; PfDGFA, 24 h incubation with gametocytes before induction, female gamete readout, read-out: Female IC50): 0.27 µM; Tox50 [3]: 0.13 µM"
O=C1SC(=Cc2ccc(O)c(O)c2)C(=O)N1c1ccccc1 [TCMDC-123491],,,,,36.79,"Selectivity Ratio M [1]: 21.44; Cytotox ratio Pf Male ([1]; Mean TOX HepG2 over DGFA IC50 MALE, GREEN = >10-fold, RED = <10-fold): 21.4; inhibition at 2 µM [1, 10]: 96.8%; inhibition at 2 µM [1, 11]: 96%; inhibition at 2 µM [1, 12]: 93.5%; inhibition at 2 µM [1, 13]: 98.6%; inhibition at 2 µM [1, 14]: 98.9%; IC50 [1, 15]: 1.72 µM; Selectivity ratio F [2]: 4.36; Cytotox ratio Pf Female ([2]; Mean TOX HepG2 over DGFA IC50 FEM, GREEN = >10-fold, RED = <10-fold): 4.4; inhibition at 2 µM [2, 16]: 28.5%; inhibition at 2 µM [2, 17]: 24.6%; inhibition at 2 µM [2, 18]: 17.5%; inhibition at 2 µM [2, 19]: 26.8%; inhibition at 2 µM [2, 20]: 45.3%; IC50 [2, 21]: 8.43 µM; Tox50 [3]: 36.79 µM"
COc1ccc(C[C@H](N)C(=O)N[C@H]2[C@@H](O)[C@H](n3cnc4c(N(C)C)ncnc43)O[C@@H]2CO)cc1 [TCMDC-123493],,,,,,"Selectivity Ratio M [1]: 3.72; inhibition at 2 µM ([1]; Plasmodium falciparum, PfDGFA at 2µM, 24h preincubation with gametocytes, average of replicates, read-out: Average inhibition male (%)): 76.8%; inhibition at 2 µM ([1]; Plasmodium falciparum, PfDGFA at 2µM, 24h preincubation with gametocytes, replicate R1, read-out: % inhibition male (individual replicates) R1): 75.8%; inhibition at 2 µM ([1]; Plasmodium falciparum, PfDGFA at 2µM, 24h preincubation with gametocytes, replicate R2, read-out: % inhibition male (individual replicates) R2): 91.9%; inhibition at 2 µM ([1]; Plasmodium falciparum, PfDGFA at 2µM, 24h preincubation with gametocytes, replicate R3, read-out: % inhibition male (individual replicates) R3): 54%; inhibition at 2 µM ([1]; Plasmodium falciparum, PfDGFA at 2µM, 24h preincubation with gametocytes, replicate R4, read-out: % inhibition male (individual replicates) R4): 85.6%; IC50 [1, 15]: 0.91 µM; HitlevelM ([1]; number of replicates with >50% inhibition in the male readout, 2µM): 4; Selectivity ratio F [2]: 0.66; inhibition at 2 µM ([2]; Plasmodium falciparum, PfDGFA at 2µM, 24h preincubation with gametocytes, average of replicates, read-out: Average inhibition female (%)): 37.8%; inhibition at 2 µM ([2]; Plasmodium falciparum, PfDGFA at 2µM, 24h preincubation with gametocytes, replicate R1, read-out: % inhibition female (individual replicates) R1): 41.5%; inhibition at 2 µM ([2]; Plasmodium falciparum, PfDGFA at 2µM, 24h preincubation with gametocytes, replicate R2, read-out: % inhibition female (individual replicates) R2): 55%; inhibition at 2 µM ([2]; Plasmodium falciparum, PfDGFA at 2µM, 24h preincubation with gametocytes, replicate R3, read-out: % inhibition female (individual replicates) R3): 20.7%; inhibition at 2 µM ([2]; Plasmodium falciparum, PfDGFA at 2µM, 24h preincubation with gametocytes, replicate R4, read-out: % inhibition female (individual replicates) R4): 33.9%; IC50 [2, 21]: 5.14 µM; HitlevelF ([2]; number of replicates with >50% inhibition in the female readout, 2µM): 1; Tox50 [3]: 3.39 µM"
CN(C)CCCn1c(N)c(-c2nc3ccccc3[nH]2)c2nc(C#N)c(C#N)nc21 [TCMDC-123729],,,,,,"Selectivity Ratio M [1]: 16; inhibition at 2 µM [1, 10]: 100%; inhibition at 2 µM [1, 11]: 96.8%; inhibition at 2 µM [1, 12]: 102%; inhibition at 2 µM [1, 13]: 97.3%; inhibition at 2 µM [1, 14]: 104%; IC50 [1, 15]: 0.51 µM; Selectivity ratio F [2]: 5.55; inhibition at 2 µM [2, 16]: 94.8%; inhibition at 2 µM [2, 17]: 95.1%; inhibition at 2 µM [2, 18]: 89.6%; inhibition at 2 µM [2, 19]: 99.5%; inhibition at 2 µM [2, 20]: 95.1%; IC50 [2, 21]: 1.47 µM; Tox50 [3]: 8.13 µM"
C=CCNc1cc(-c2ccccn2)nc(-c2ccccn2)n1 [TCMDC-123787],,,,,,"Selectivity Ratio M [1]: 13.76; inhibition at 2 µM [1, 10]: 94.8%; inhibition at 2 µM [1, 11]: 93.1%; inhibition at 2 µM [1, 12]: 94.1%; inhibition at 2 µM [1, 13]: 97.8%; inhibition at 2 µM [1, 14]: 94.1%; IC50 [1, 15]: 0.91 µM; Selectivity ratio F [2]: 2.57; inhibition at 2 µM [2, 16]: 33.1%; inhibition at 2 µM [2, 17]: 29.8%; inhibition at 2 µM [2, 18]: 30%; inhibition at 2 µM [2, 19]: 14.9%; inhibition at 2 µM [2, 20]: 57.6%; IC50 [2, 21]: 4.89 µM; Tox50 [3]: 12.58 µM"
